“And” between values parts separate entries of the source, which are not always exact repeats. Equal entries are not always repeated.
Columns and labels:
[1] = tested on: anesthetized thromboxane A2 challenged PAH-minipig; test: Haemodynamics in the anesthetized thromboxane challenged minipig (PAH minipig), inhaled nebulized solution: lung selectivity and duration of action; type: in vivo, Göttingen Minipigs
Procedure: (§1) Healthy Göttingen Minipigs® Ellegaard (Ellegaard, Denmark) of both sexes and having a weight of 2-6 kg were used. The animals were sedated by i.m. administration of about 25 mg/kg ketamine and about 10 mg/kg azaperone. Anaesthesia was initiated by i.v. administration of about 2 mg/kg ketamine and about 0.3 mg/kg midazolam. Maintenance of anaesthesia was by i.v. administration of about 7.5-30 mg/kg/h ketamine and about 1-4 mg/kg/h midazolam (rate of infusion 1-4 ml/kg/h) and about 150 μg/kg/h pancuronium bromide (for example Pancuronium-Actavis). After intubation, the animals were ventilated by the ventilator at a constant respiratory volume (10-12 ml/kg, 35 breaths/min; Avea®, Viasys Healthcare, USA, or Engström Carestation, GE Healthcare, Freiburg, Germany) such that an end-tidal CO2 concentration of about 5% was achieved. Ventilation was performed with room air, enriched with about 40% oxygen (normoxia). For the measurement of the haemodynamic parameters such as pulmonary arterial pressure (PAP), blood pressure (BP) and heart rate (HR), catheters were inserted into the carotid artery to measure the blood pressure, and a Swan-Ganz® catheter was introduced in a flow-directed manner via the jugular vein into the pulmonary artery. The haemodynamic signals were recorded and evaluated by means of pressure transducers (Combitransducer, B. Braun, Melsungen, Germany)/amplifiers and Ponemah® as data acquisition software.
After the instruments have been placed into the animals, continuous infusion of a thromboxane A2 analog was initiated to increase the pulmonary arterial pressure. About 0.3-0.75 μg/kg/min of 9,11-didesoxy-9α,11α-epoxymethanoprostaglandine F2α (U-44069; Sigma, cat. no. D0400, or Cayman Chemical Company, cat. no. 16440), dissolved in physiological saline, were infused to achieve an increase of the mean pulmonary arterial pressure to values of over 25 mmHg. 30 minutes after the start of the infusion, a plateau was reached, and the experiment was started.
The test substances were administered as i.v. infusion or by inhalation. For the preparation of the solution for inhalation, the following procedure was adopted: For an animal having a weight of 4 kg, to prepare the stock solution (300 μg/kg), 1.2 mg of the test compound were weighed out and dissolved in a total volume of 3 ml (1% DMSO, 99% 0.2% strength citric acid solution, 1 n aqueous sodium hydroxide solution to adjust the pH to 8). The solution was then diluted to the concentration employed using 0.2% strength citric acid which had been adjusted to pH 8 beforehand with aqueous sodium hydroxide solution. In each test, 3 ml of the solution of test compound per 4 kg animal were nebulized in the inhalation arm of the respiratory circuit using the Aeroneb® Pro nebulizer system. The mean nebulization time was about 7 min from the start of the nebulization.
With respect to a prediction of the duration of action for human studies comparative example 11 was compared in the PAH minipig model after inhaled application to Ventavis® (=Iloprost, 10 μg/kg nominal dose), which we used as a clinical reference. […] Therefore, the duration of action is more than 6 times longer compared to Ventavis in this preclinical animal model.

[2] = tested on: anesthetized PAH minipigs; test: PAH minipig, intratracheal application of dry powder formulations and of different hydrates (PAP, BP); type: in vivo, Göttingen Minipigs; details: for efficacy with regard to PAP reduction and systemic BP reduction: micronized hydrates; for PAP(mean) / BP (mean): per animal; for % changes vs. baseline on PAP: intratracheal application
Procedure: as §1
About 0.3-0.75 μg/kg/min of 9,11-didesoxy-9α,11α-epoxymethanoprostaglandine F2α (U-44069; Sigma, cat. no. D0400, or Cayman Chemical Company, cat. no. 16440), dissolved in physiological saline, were infused to achieve an increase of the mean pulmonary arterial pressure to values of over 25 mmHg.
After characterization of the effects of comparative example 11 after nebulization of compound solutions, in a further step the effects of crystalline forms of comparative example 11, e.g. sesquihydrate, e.g. example 6e on PAP and BP after inhaled application of different dry powder lactose formulations (table 52) were studied in anesthetized PAH minipigs.
As reference pure Lactose vehicle was applied in the beginning of each experiment.

[3] = % vs. prevalues, 375 μg/kg i.t., time 60, each animal
[4] = % vs. prevalues, 375 μg/kg i.t., time 70, each animal
[5] = 375 μg/kg i.t., time 0, Sesquihydrate
[6] = 375 μg/kg i.t., time −10, Sesquihydrate

## O=C(O)CCCCN(CCc1cc(F)ccc1OCc1ccc(-c2nc3cc(Cl)ccc3o2)cc1)C1CCCc2nc(C(=O)O)ccc21 (single isomer, unassigned) [compound 3, (5)-{(4-carboxybutyl)[2-(2-{[4-(5-chloro-1,3-benzoxazol-2-yl)benzyl]oxy}-5-fluorophenyl)ethyl]amino}-5,6,7,8-tetrahydroquinoline-2-carboxylic Acid, reference compound]
[1]; inhaled application
  effect on PAP completely resolved after: 120 min
[1]; nebulized solution
  time of maximal effect on PAP after inhaled application: 30 min

## O.O=C(O)c1ccc(CCN(CCc2ccccc2OCc2ccc(-c3ccc(C(F)(F)F)cc3)cc2Cl)[C@H]2CCCc3nc(C(=O)O)ccc32)cc1.O=C(O)c1ccc(CCN(CCc2ccccc2OCc2ccc(-c3ccc(C(F)(F)F)cc3)cc2Cl)[C@H]2CCCc3nc(C(=O)O)ccc32)cc1 [Example 6a, (5S)—{[2-(4-Carboxyphenyl)ethyl][2-(2-{[3-chloro-4′-(trifluoromethyl)biphenyl-4-yl]methoxy}phenyl)-ethyl]amino}-5,6,7,8-tetrahydroquinoline-2-carboxylic Acid Semihydrate]
[2]; 375 μg/kg i.t.
  efficacy with regard to PAP reduction and systemic BP reduction: comparable efficacy
[2]; 375 μg/kg i.t., time 170
  PAP(mean): 24.0 mmHg and 32.4 mmHg and 29.9 mmHg
[2]; 375 μg/kg i.t., time 180
  BP (mean): 94 mmHg
  PAP(mean): 23.7 mmHg
[2]; 375 μg/kg i.t., time 190
  BP (mean): 94 mmHg and 93 mmHg
  PAP(mean): 24.4 mmHg and 32.4 mmHg and 29.2 mmHg
[2]; 375 μg/kg i.t., time 200
  PAP(mean): 24.8 mmHg and 32.4 mmHg and 29.4 mmHg
[2]; 375 μg/kg i.t., time 210
  BP (mean): 91 mmHg
  PAP(mean): 24.8 mmHg and 29.2 mmHg
[2]; 375 μg/kg i.t., time 220
  PAP(mean): 24.7 mmHg and 29.1 mmHg
[2]; 375 μg/kg i.t., time 230
  PAP(mean): 24.0 mmHg
[2]; 375 μg/kg i.t., time 240
  BP (mean): 77 mmHg
  PAP(mean): 24.1 mmHg and 28.1 mmHg
[2]; 375 μg/kg i.t., time 250
  BP (mean): 76 mmHg
  PAP(mean): 24.2 mmHg and 28.1 mmHg
[2]; 375 μg/kg i.t., time 260
  BP (mean): 76 mmHg
  PAP(mean): 24.1 mmHg and 30.6 mmHg and 28.1 mmHg
[2]; 375 μg/kg i.t., time 270
  BP (mean): 76 mmHg
  PAP(mean): 24.4 mmHg and 30.6 mmHg and 27.8 mmHg
[2]; 375 μg/kg i.t., time 280
  BP (mean): 75 mmHg
  PAP(mean): 24.3 mmHg and 28.0 mmHg
[2]; 375 μg/kg i.t., time 290
  BP (mean): 75 mmHg
  PAP(mean): 24.1 mmHg and 27.6 mmHg
[2]; 375 μg/kg i.t., time 300
  BP (mean): 77 mmHg
  PAP(mean): 23.7 mmHg and 30.5 mmHg and 27.7 mmHg
[2]; [3]
  BP: 100.6% and 99.7% and 97.2%
  PAP: 100.7% and 99.4% and 99.2%
[2]; [4]
  BP: 102.6%
  PAP: 94.7%

## O.O.O.O=C(O)c1ccc(CCN(CCc2ccccc2OCc2ccc(-c3ccc(C(F)(F)F)cc3)cc2Cl)[C@H]2CCCc3nc(C(=O)O)ccc32)cc1.O=C(O)c1ccc(CCN(CCc2ccccc2OCc2ccc(-c3ccc(C(F)(F)F)cc3)cc2Cl)[C@H]2CCCc3nc(C(=O)O)ccc32)cc1 [Example 6e, (5S)—{[2-(4-Carboxyphenyl)ethyl][2-(2-{[3-chloro-4′-(trifluoromethyl)biphenyl-4-yl]methoxy}phenyl)-ethyl]amino}-5,6,7,8-tetrahydroquinoline-2-carboxylic Acid Sesquihydrate]
[2]; 375 μg/kg i.t.
  efficacy with regard to PAP reduction and systemic BP reduction: comparable efficacy
[2]; [5]
  BP (mean): 104 mmHg
  PAP(mean): 41.9 mmHg
[2]; [6]
  BP (mean): 107 mmHg
  PAP(mean): 36.4 mmHg and 37.5 mmHg
[2]; time 80 (baseline = 100), each animal
  % changes vs. baseline on PAP: 100.0%
[2]; time 90, each animal, Sesquihydrate
  % changes vs. baseline on PAP: 98.9% and 103.6% and 99.8%
[2]; time 100, each animal, Sesquihydrate
  % changes vs. baseline on PAP: 99.5% and 101.4% and 97.3%
[2]; time 110, each animal, Sesquihydrate
  % changes vs. baseline on PAP: 89.3% and 98.7% and 86.8%
[2]; time 120, each animal, Sesquihydrate
  % changes vs. baseline on PAP: 84.0% and 95.6% and 75.7%
[2]; time 130, each animal, Sesquihydrate
  % changes vs. baseline on PAP: 78.9% and 93.7% and 70.2%
[2]; time 140, each animal, Sesquihydrate
  % changes vs. baseline on PAP: 75.2% and 91.8% and 67.5%
[2]; time 150, each animal, Sesquihydrate
  % changes vs. baseline on PAP: 74.0% and 76.0% and 65.4%
[2]; time 160, each animal, Sesquihydrate
  % changes vs. baseline on PAP: 71.0% and 79.5% and 65.9%
[2]; time 170, each animal, Sesquihydrate
  % changes vs. baseline on PAP: 68.5% and 74.3% and 61.5%
[2]; time 180, each animal, Sesquihydrate
  % changes vs. baseline on PAP: 63.2% and 80.8% and 62.0%
[2]; time 190, each animal, Sesquihydrate
  % changes vs. baseline on PAP: 61.5% and 80.8% and 58.6%
[2]; time 200, each animal, Sesquihydrate
  % changes vs. baseline on PAP: 62.3% and 80.3% and 60.2%
[2]; time 210, each animal, Sesquihydrate
  % changes vs. baseline on PAP: 61.0% and 80.7% and 59.4%
[2]; time 220, each animal, Sesquihydrate
  % changes vs. baseline on PAP: 59.5% and 86.3% and 57.8%
[2]; time 230, each animal, Sesquihydrate
  % changes vs. baseline on PAP: 58.6% and 82.6% and 57.8%
[2]; time 240, each animal, Sesquihydrate
  % changes vs. baseline on PAP: 59.3% and 81.5% and 57.6%
[2]; time 250, each animal, Sesquihydrate
  % changes vs. baseline on PAP: 59.3% and 82.2% and 56.1%
[2]; time 260, each animal, Sesquihydrate
  % changes vs. baseline on PAP: 58.8% and 82.7% and 57.6%
[2]; time 270, each animal, Sesquihydrate
  % changes vs. baseline on PAP: 59.9% and 78.3% and 55.4%
[2]; time 280, each animal, Sesquihydrate
  % changes vs. baseline on PAP: 58.4% and 78.3% and 55.9%
[2]; time 290, each animal, Sesquihydrate
  % changes vs. baseline on PAP: 57.4% and 79.6% and 53.9%
[2]; time 300, each animal, Sesquihydrate
  % changes vs. baseline on PAP: 60.1% and 78.7% and 54.5%
[2]; time 310, each animal, Sesquihydrate
  % changes vs. baseline on PAP: 58.4% and 77.6% and 53.7%
[2]; time 320, each animal, Sesquihydrate
  % changes vs. baseline on PAP: 61.8% and 76.3% and 55.1%
[2]; time 330, each animal, Sesquihydrate
  % changes vs. baseline on PAP: 61.3% and 74.8% and 53.0%
[2]; time 20 min, lactose vehicle first, test powder 1.5 mg/4 kg i.t. @90 min, per animal (n = 3), Sesquihydrate
  PAP: 42.0 mmHg and 37.5 mmHg
[2]; time 30 min, lactose vehicle first, test powder 1.5 mg/4 kg i.t. @90 min, per animal (n = 3)
  BP: 104 mmHg
[2]; time 30 min, lactose vehicle first, test powder 1.5 mg/4 kg i.t. @90 min, per animal (n = 3), Sesquihydrate
  PAP: 41.9 mmHg and 37.1 mmHg and 37.5 mmHg
[2]; time 40 min, lactose vehicle first, test powder 1.5 mg/4 kg i.t. @90 min, per animal (n = 3), Sesquihydrate
  PAP: 42.0 mmHg and 37.3 mmHg and 38.6 mmHg
[2]; time 50 min, lactose vehicle first, test powder 1.5 mg/4 kg i.t. @90 min, per animal (n = 3), Sesquihydrate
  PAP: 41.4 mmHg and 37.4 mmHg and 39.8 mmHg
[2]; time 60 min, lactose vehicle first, test powder 1.5 mg/4 kg i.t. @90 min, per animal (n = 3), Sesquihydrate
  PAP: 41.4 mmHg and 36.8 mmHg and 41.2 mmHg
[2]; time 70 min, lactose vehicle first, test powder 1.5 mg/4 kg i.t. @90 min, per animal (n = 3), Sesquihydrate
  PAP: 41.0 mmHg and 37.4 mmHg and 41.3 mmHg
[2]; time 80 min, lactose vehicle first, test powder 1.5 mg/4 kg i.t. @90 min, per animal (n = 3), Sesquihydrate
  PAP: 40.9 mmHg and 38.1 mmHg and 40.8 mmHg
[2]; time 90 min, lactose vehicle first, test powder 1.5 mg/4 kg i.t. @90 min, per animal (n = 3)
  BP: 102 mmHg
[2]; time 90 min, lactose vehicle first, test powder 1.5 mg/4 kg i.t. @90 min, per animal (n = 3), Sesquihydrate
  PAP: 40.4 mmHg and 39.5 mmHg

— US20250281480A1, “PHARMACEUTICAL DRY POWDER INHALATION FORMULATION” (Bayer Aktiengesellschaft, priority 2021, published 2025)
